Structures can show the parent of a compound that is named as a salt. Where two headings read alike, the source gives them in different places.
What was measured:
[1] = system: Bone marrow derived macrophages (BMDMs), M2 gene expression; assay: M2 marker mRNA in IL4 stimulated bone marrow derived macrophages (RT PCR); type: cell-based, murine; details: control = 1; for Arg mRNA expression relative to control / Fizz1 mRNA expression relative to control / Mgl mRNA expression relative to control / Mmr mRNA expression relative to control / Ym1 mRNA expression relative to control: IL4 stimulated BMDMs, 24 hours, normalized to GAPDH; for Arg relative mRNA expression (M2 gene) / Il10 relative mRNA expression (M2 gene) / Mmr relative mRNA expression (M2 gene) / Tgfb relative mRNA expression (M2 gene) / Vegf relative mRNA expression (M2 gene): Table 7, IL4 polarized murine BMDMs
Description: (§1) Bone marrow derived macrophages (MOs) (BMDMs) were exposed to IL4 or LPS for 24 hours to stimulate the M2 or M1 macrophage transition in presence of Compound 1 and the known SYK inhibitor Bay-61-3606 at 1 μM conc. M2 markers Mmr, Ym1, Fizz1 and Mgl mRNA and M1 markers I11, 116 and Tnfa mRNA was quantitated by RT PCR. Values are mean±SEM (n=3-4). Expression of gene of interest is normalized to GAPDH. […] The data provide direct evidence that Compound 1 can block the immunosuppressive macrophage M2 gene expression and activate the M1 gene expression and therefore activate antitumor innate immune cell differentiation in vitro.
(§2) Relative mRNA expression of IL4 or LPS polarized genes in murine bone marrow derived macrophages (BMDMs) treated with various concentrations of inhibitors in vitro. Conclusion: Compound 3 suppressed in vitro macrophage specific immunosuppressive M2 gene expression markers and augmented macrophage stimulatory immune response M1 genes respectively.

[2] = system: Bone marrow derived macrophages (BMDMs), M1 gene expression; assay: M1 marker mRNA in LPS stimulated bone marrow derived macrophages (RT PCR); type: cell-based, murine; details: control = 1; for Il1 mRNA expression relative to control / Il6 mRNA expression relative to control / Tnfa mRNA expression relative to control: LPS stimulated BMDMs, 24 hours, normalized to GAPDH; for Ifng relative mRNA expression (M1 gene) / Il1 relative mRNA expression (M1 gene) / Il6 relative mRNA expression (M1 gene) / Nos2 relative mRNA expression (M1 gene) / Tnfa relative mRNA expression (M1 gene): Table 8, LPS polarized murine BMDMs
Text: as §1, with “Bone marrow derived macrophages (MOs) (BMDMs) were exposed to IL4 or LPS for 24 hours to stimulate the M2 or M1 macrophage transition in presence of Compound 1 and the known SYK inhibitor Bay-61-3606 at 1 μM conc.” left out
as §2

SYK = target: T1, SYK (Homo sapiens, UniProt P43405); assay: SYK inhibition IC50 (Reaction Biology Corp.); type: biochemical
T1 construct: purchased Reaction Biology Corp., Malvern, Pa; (contract assay service)
Text: (§3) The inhibitory activity of a compound of the invention against PI3K and/or BRD4 and/or SYK and/or CDK4/6 can be readily determined using methods known to the skilled artisan, or by commercial vendors offering such services. […] In vivo, PI3K inhibition can be determined from target tissue biopsies by standard tissue processing to disrupt cells and then performing Western Blot analysis to determine the presence or absence of pAKT (substrate of PI3K) relative to a control sample. The activity of a compound of the invention as an inhibitor of a bromodomain-containing protein, such as a BET protein, such as BRD2, BRD3, BRD4, and/or BRDT, or an isoform or mutant thereof, may be determined in vitro, in vivo, or in a cell line. In vitro assays include assays that determine inhibition of bromodomain-containing proteins. Alternatively, inhibitor binding may be determined by running a competition experiment where a provided compound is incubated with a bromodomain-containing protein, such as a BET protein bound to known ligands, labeled or unlabeled. For example, bromodomain inhibition can be determined in vitro using Alpha Screen Technology (http://www.reactionbiologv.com/webapps/site/NewsPDFs/Bromodomain%20Assay %20Platform %20for %20Drug %20Screening %20and %20Discovery.pdf). In vivo bromodomain inhibition can be determined indirectly by evaluating the amount of protein present of proteins whose genes' transcription is influenced or controlled by the bromodomain protein, for example, the MYCN protein transcription is controlled by BRD4 (J. E. Delmore et al., Cell 2011, 146, 904-917; A. Puissant, Cancer Discov. 2013, 3, 308-323). Bromodomain inhibition may also be predicted by in silico modeling as described below in the Examples. Additionally, the company Promega offers a SYK luminescent assay to determine a compound's ability to inhibit the SYK protein (https://www.promega.com/-/media/files/resources/protocols/kinase-enzyme-appnotes/syk-kinase-assay-protocol.pdf?la=en).
Compounds of the invention were characterized for their ability to inhibit target proteins using third party vendors offering such services. PI3K alpha, gamma, and delta inhibition activity was determined by Thermo Fisher Scientific-Biosciences Life Sciences Solutions, Madison, Wis. The bromodomain protein inhibition (binding domain 1 and 2 of BRD4) as well as SYK inhibition was determined at Reaction Biology Corp., Malvern, Pa. Additional information on each of the assays performed and services provided is available at each company's website on the internet (https://www.thermofisher.com/us/en/home/life-science.html and http://www.reactionbiology.com/webapps/site, respectively). The IC50 data (shown below in Table 5) was calculated from a 10-point curve and is expressed in nanomolar concentration (nM) rounded off to the nearest whole number. Where multiple values were obtained the range from lowest to highest values is presented. NI=no inhibition detected up to 50 uM or IC50 not reached at 50 uM.

BRD4-1 = target: T2, BRD4-1 (Homo sapiens, UniProt O60885); assay: Bromodomain protein inhibition IC50, binding domain 1 of BRD4 (Reaction Biology Corp.); details: 10-point curve
T2 construct: purchased Reaction Biology Corp., Malvern, Pa; (contract assay service)
Text: as §3
(§4) Compounds of the invention were characterized for their ability to inhibit target proteins using third party vendors offering such services. PI3K alpha, gamma, and delta inhibition activity was determined by Thermo Fisher Scientific-Biosciences Life Sciences Solutions, Madison, Wis. The bromodomain protein inhibition (binding domain 1 and 2 of BRD4) as well as SYK inhibition was determined at Reaction Biology Corp., Malvern, Pa. […] The IC50 data (shown below in Table 5) was calculated from a 10-point curve and is expressed in nanomolar concentration (nM) rounded off to the nearest whole number. […]

BRD4-2 = target: T3, BRD4-2 (Homo sapiens, UniProt O60885); assay: Bromodomain protein inhibition IC50, binding domain 2 of BRD4 (Reaction Biology Corp.); details: 10-point curve
T3 construct: purchased Reaction Biology Corp., Malvern, Pa; (contract assay service)
Text: as §3, §4

PI3K α = target: T4, PI3K α (Homo sapiens, UniProt P42336); assay: PI3K alpha inhibition IC50 (Thermo Fisher); type: biochemical; details: 10-point curve
T4 construct: purchased Thermo Fisher Scientific-Biosciences Life Sciences Solutions, Madison, Wis; (contract assay service)
T4 sequence (P42336 whole entry): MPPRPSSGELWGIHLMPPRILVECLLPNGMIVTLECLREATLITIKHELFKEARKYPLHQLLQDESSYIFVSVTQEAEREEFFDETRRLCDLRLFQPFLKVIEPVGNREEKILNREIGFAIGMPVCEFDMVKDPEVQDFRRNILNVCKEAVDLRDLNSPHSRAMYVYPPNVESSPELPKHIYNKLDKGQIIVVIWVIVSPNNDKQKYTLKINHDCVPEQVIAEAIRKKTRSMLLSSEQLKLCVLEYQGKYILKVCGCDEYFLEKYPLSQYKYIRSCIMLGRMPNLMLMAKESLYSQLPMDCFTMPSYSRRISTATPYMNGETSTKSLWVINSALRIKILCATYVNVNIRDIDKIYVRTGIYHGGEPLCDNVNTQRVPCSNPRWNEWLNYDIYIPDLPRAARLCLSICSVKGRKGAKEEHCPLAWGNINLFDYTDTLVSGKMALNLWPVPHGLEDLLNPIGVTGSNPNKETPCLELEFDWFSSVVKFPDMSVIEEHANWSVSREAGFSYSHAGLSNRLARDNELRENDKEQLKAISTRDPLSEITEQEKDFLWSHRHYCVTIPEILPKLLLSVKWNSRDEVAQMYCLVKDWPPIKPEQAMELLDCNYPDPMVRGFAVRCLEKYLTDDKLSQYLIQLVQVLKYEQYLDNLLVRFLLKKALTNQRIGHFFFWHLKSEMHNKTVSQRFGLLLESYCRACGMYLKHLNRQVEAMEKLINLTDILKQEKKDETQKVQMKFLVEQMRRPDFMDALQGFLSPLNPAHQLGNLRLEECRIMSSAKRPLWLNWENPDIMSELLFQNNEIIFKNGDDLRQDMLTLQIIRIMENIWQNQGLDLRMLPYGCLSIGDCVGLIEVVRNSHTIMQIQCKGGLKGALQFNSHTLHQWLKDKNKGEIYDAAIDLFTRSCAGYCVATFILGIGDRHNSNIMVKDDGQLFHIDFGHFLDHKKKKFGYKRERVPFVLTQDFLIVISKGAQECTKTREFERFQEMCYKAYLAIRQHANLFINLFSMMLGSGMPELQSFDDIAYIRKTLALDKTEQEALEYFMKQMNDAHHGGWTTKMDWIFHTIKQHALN
T4 sequence (P27986 whole entry partner): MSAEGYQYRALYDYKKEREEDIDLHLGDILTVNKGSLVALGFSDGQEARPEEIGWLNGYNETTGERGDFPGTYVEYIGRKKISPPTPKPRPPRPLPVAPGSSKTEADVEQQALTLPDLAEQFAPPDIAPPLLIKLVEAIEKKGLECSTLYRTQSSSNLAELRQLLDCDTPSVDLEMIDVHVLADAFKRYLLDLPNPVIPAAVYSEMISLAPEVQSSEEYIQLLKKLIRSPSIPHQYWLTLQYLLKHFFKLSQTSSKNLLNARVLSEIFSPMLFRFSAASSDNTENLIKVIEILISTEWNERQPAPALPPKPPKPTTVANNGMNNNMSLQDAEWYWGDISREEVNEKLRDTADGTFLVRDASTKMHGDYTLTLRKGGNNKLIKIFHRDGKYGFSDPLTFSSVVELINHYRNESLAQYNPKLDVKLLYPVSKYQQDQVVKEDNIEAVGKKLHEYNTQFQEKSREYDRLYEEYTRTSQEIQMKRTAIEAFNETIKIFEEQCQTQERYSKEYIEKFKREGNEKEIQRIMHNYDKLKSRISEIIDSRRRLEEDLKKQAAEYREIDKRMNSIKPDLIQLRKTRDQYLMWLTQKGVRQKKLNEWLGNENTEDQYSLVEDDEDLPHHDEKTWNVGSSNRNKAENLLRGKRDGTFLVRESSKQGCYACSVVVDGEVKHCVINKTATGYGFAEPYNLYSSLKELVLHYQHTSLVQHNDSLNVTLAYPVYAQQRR
Text: as §3, §4

PI3K γ = target: T5, PI3K γ (Homo sapiens, UniProt P48736); assay: PI3K gamma inhibition IC50 (Thermo Fisher); type: biochemical; details: 10-point curve
T5 construct: purchased Thermo Fisher Scientific-Biosciences Life Sciences Solutions, Madison, Wis; (contract assay service)
T5 sequence (P48736 whole entry): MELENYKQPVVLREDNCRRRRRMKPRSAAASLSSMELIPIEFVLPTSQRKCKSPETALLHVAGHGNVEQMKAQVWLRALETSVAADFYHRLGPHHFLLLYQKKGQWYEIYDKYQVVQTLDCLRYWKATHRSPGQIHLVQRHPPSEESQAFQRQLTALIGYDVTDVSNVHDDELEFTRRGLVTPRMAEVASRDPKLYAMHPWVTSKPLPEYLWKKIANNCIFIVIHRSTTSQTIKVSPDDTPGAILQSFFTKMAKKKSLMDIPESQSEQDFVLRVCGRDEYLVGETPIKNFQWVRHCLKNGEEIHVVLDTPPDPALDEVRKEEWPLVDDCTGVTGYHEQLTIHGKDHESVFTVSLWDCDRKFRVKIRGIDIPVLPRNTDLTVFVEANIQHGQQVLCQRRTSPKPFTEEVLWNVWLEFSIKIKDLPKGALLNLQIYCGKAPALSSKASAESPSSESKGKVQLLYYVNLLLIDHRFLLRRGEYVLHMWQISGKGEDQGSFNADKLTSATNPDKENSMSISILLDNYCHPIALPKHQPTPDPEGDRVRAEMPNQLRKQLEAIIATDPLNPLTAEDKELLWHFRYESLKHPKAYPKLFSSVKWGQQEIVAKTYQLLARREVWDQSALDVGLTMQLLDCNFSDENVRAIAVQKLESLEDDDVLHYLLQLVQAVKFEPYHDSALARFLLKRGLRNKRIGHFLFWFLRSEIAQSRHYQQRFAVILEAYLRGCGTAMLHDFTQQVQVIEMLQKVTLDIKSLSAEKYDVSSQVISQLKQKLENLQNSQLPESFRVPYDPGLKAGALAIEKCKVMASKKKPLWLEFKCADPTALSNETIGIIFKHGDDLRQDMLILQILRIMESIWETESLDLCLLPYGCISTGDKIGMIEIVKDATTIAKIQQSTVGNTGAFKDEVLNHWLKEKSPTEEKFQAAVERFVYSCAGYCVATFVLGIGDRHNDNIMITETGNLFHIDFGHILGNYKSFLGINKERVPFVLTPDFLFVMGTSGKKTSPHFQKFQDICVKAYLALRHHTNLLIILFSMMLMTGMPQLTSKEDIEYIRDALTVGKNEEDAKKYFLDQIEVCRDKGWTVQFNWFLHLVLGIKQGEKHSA
Text: as §3, §4

[3] = 10-point curve, read-out: SYK IC50

For `COc1ccc(-c2cc3nccn3c(Nc3ncccc3C(N)=O)n2)cc1OC` [Bay 61-3606, Bay-61-3606, reference compound], the “Arg mRNA expression relative to control” value ([1]; 500 nM) was 0.35, the “Fizz1 mRNA expression relative to control” value ([1]; 500 nM) was 0.05 and the “Mgl mRNA expression relative to control” value ([1]; 500 nM) was 0.33. For the same compound, the “Mmr mRNA expression relative to control” value ([1]; 500 nM) was 0.12, the “Ym1 mRNA expression relative to control” value ([1]; 500 nM) was 0.07 and the “Arg mRNA expression relative to control” value ([1]; 1 μM) was 0.33. For the same compound, the “Fizz1 mRNA expression relative to control” value ([1]; 1 μM) was 0.005, the “Mgl mRNA expression relative to control” value ([1]; 1 μM) was 0.34 and the “Mmr mRNA expression relative to control” value ([1]; 1 μM) was 0.12. For the same compound, the “Ym1 mRNA expression relative to control” value ([1]; 1 μM) was 0.07, the “Arg mRNA expression relative to control” value ([1]; 5 μM) was 0.06 and the “Fizz1 mRNA expression relative to control” value ([1]; 5 μM) was 0.0013. The “Mgl mRNA expression relative to control” value ([1]; 5 μM) was 0.36, the “Mmr mRNA expression relative to control” value ([1]; 5 μM) was 0.15 and the “Ym1 mRNA expression relative to control” value ([1]; 5 μM) was 0.04. The “Il1 mRNA expression relative to control” value ([2]; 500 nM) was 0.66, the “Il6 mRNA expression relative to control” value ([2]; 500 nM) was 0.79 and the “Tnfa mRNA expression relative to control” value ([2]; 500 nM) was 0.88. For the same compound, the “Il1 mRNA expression relative to control” value ([2]; 1 μM) was 0.22, the “Il6 mRNA expression relative to control” value ([2]; 1 μM) was 0.31 and the “Tnfa mRNA expression relative to control” value ([2]; 1 μM) was 0.69. The “Il1 mRNA expression relative to control” value ([2]; 5 μM) was 0.11, the “Il6 mRNA expression relative to control” value ([2]; 5 μM) was 1.63 and the “Tnfa mRNA expression relative to control” value ([2]; 5 μM) was 2.25.

For `O=c1cc(N2CCOCC2)oc2c(-c3ccc4c(c3)OCCO4)csc12` [Compound 0], the IC50 (SYK; note to Table 5, read-out: SYK inhibition IC50) was > 50 µM.

`Cc1nn(-c2ccnc(Nc3ccc(-c4csc5c(=O)cc(N6CCNCC6)oc45)cc3)n2)cc1CN1CC(O)C1` [Compound 2, 3-[p-(4-{4-[(3-Hydroxy-1-azetidinyl)methyl]-3-methyl-1H-pyrazol-1-yl}-2-pyrimidinylamino)phenyl]-5-(1-piperazinyl)-4-oxa-1-thia-7-indenone dihydrochloride] was tested, and the IC50 (SYK; [3]) was < 0.1 µM, the IC50 (BRD4-1) was 5 to 50 µM and the IC50 (BRD4-2) was > 50 µM. For the same compound, the IC50 (PI3K α) was 1 to 5 µM and the IC50 (PI3K γ) was > 50 µM.

In the case of `Cc1nn(-c2ccnc(Nc3ccc(-c4csc5c(=O)cc(N6CCNCC6)oc45)cc3)n2)cc1CN1CCC1` [Compound 4, 3-[p-(4-{4-[(1-Azetidinyl)methyl]-3-methyl-1H-pyrazol-1-yl}-2-pyrimidinylamino)phenyl]-5-(1-piperazinyl)-4-oxa-1-thia-7-indenone dihydrochloride], the IC50 (SYK; [3]) is reported as 0.1 to 1 µM, the IC50 (BRD4-1) is reported as 5 to 50 µM and the IC50 (BRD4-2) is reported as > 50 µM. The IC50 (PI3K α) was 5 to 50 µM and the IC50 (PI3K γ) was > 50 µM.

With `COc1cc(Nc2ncc(F)c(Nc3ccc4c(n3)N(COP(=O)(O)O)C(=O)C(C)(C)O4)n2)cc(OC)c1OC` [Compound R788, fostamatinib, reference compound] the “Arg relative mRNA expression (M2 gene)” value ([1]; 500 nM) was 0.352 ± 0.07, the “Il10 relative mRNA expression (M2 gene)” value ([1]; 500 nM) was 0.35 ± 0.026 and the “Mmr relative mRNA expression (M2 gene)” value ([1]; 500 nM) was 0.31 ± 031. For the same compound, the “Tgfb relative mRNA expression (M2 gene)” value ([1]; 500 nM) was 0.771 ± .007, the “Vegf relative mRNA expression (M2 gene)” value ([1]; 500 nM) was 0.58 ± 0.065 and the “Ifng relative mRNA expression (M1 gene)” value ([2]; 500 nM) was 3.2 ± 0.09. The “Il1 relative mRNA expression (M1 gene)” value ([2]; 500 nM) was 1.4 ± 0.003, the “Il6 relative mRNA expression (M1 gene)” value ([2]; 500 nM) was 1.8 ± 0.05 and the “Nos2 relative mRNA expression (M1 gene)” value ([2]; 500 nM) was 0.6 ± 0.014. The “Tnfa relative mRNA expression (M1 gene)” value ([2]; 500 nM) was 1.4 ± 0.13.

With `C[C@H](NC(=O)c1c(N)nn2cccnc12)c1cc2cccc(C#Cc3cnn(C)c3)c2c(=O)n1-c1ccccc1` [IPI549, reference compound] the “Arg relative mRNA expression (M2 gene)” value ([1]; 500 nM) was 0.62 ± 0.08, the “Il10 relative mRNA expression (M2 gene)” value ([1]; 500 nM) was 0.081 ± .002 and the “Mmr relative mRNA expression (M2 gene)” value ([1]; 500 nM) was 0.324 ± 0.049. The “Tgfb relative mRNA expression (M2 gene)” value ([1]; 500 nM) was 0.568 ± 0.05, the “Vegf relative mRNA expression (M2 gene)” value ([1]; 500 nM) was 0.374 ± .132 and the “Ifng relative mRNA expression (M1 gene)” value ([2]; 500 nM) was 1.9 ± 0.249. The “Il1 relative mRNA expression (M1 gene)” value ([2]; 500 nM) was 3.9 ± 0.003, the “Il6 relative mRNA expression (M1 gene)” value ([2]; 500 nM) was 1.8 ± 0.05 and the “Nos2 relative mRNA expression (M1 gene)” value ([2]; 500 nM) was 0.83 ± .04. The “Tnfa relative mRNA expression (M1 gene)” value ([2]; 500 nM) was 0.984 ± .16.

— patent publication US11472814B2, “Thienopyranones and furanopyranones as checkpoint inhibitors and modulators of anti-tumor immunity” (SignalRx Pharmaceuticals, Inc., priority 2017, dated 2022)
